These results are taken from US3950427A, “Araliphatic ketones and carbinols” (Boehringer Ingelheim GmbH, priority 1973, dated 1976).

Molecules are shown by their SMILES. Where two headings read alike, the source gives them in different places. Some results are limits rather than exact numbers.

Common to all, as to assay type: in vivo, rat (male FW 49)
Test [1] deals with Kaolin-induced edema of the hind paw of the rat. Kind of test: Kaolin-induced edema of the hind paw of the rat (anti-exudative effect). Conditions: 30 minutes before inducing edema, swelling 5 hours after; for ED35: Rattus norvegicus, po, 5 h, read-out: Kaolin edema ED35 per os; for Kaolin edema ED35 per os: oral. The procedure: (§1) The compunds were tested for their anti-exudative effect on Kaolin-induced edema and carrageenin-induced edema in the hind paw of the rat after oral administration to the rat.
a. Kaolin-induced edema of the hind paw of the rat
(§2) The kaolin edema was induced according to the method given by Hillebrecht [Arzneimittel-Forsch. 4, 607 (1954)] by subplanar injection of 0.05 ml of a 10% suspension of kaolin in a 0.85% sodium chloride solution. Measurement of the thickness of the paws was effected using the technique of Doepfner and Cerletti [Int. Arch. Allergy Immunol. 12, 89 (1958)].
(§3) The test compound was administered orally to male FW 49 rats weighing 120-150 gm by means of an esophageal tube 30 minutes before inducing the edema. 5 hours after inducing the edema the average size of the swelling in the rats treated with the test compound was compared with the size of the swelling in blind-treated control animals. By graphic extrapolation the dose leading to a 35% of the swelling (ED35) was calculated from the percentage reduction in the size of the swelling caused by the administration of different doses.

For test [2], the system named is Kaolin edema and carrageenin edema of the hind paw of the rat. Kind of test: Average value of kaolin edema and carrageenin edema. As to conditions: per os, Table I; for ED35: Rattus norvegicus. The procedure:
as §1, §2, §3
(§4) The carrageenin edema was induced according to the method of Winder et al. [Proc. Soc. exp. Biol. Med. 111, 544 (1962)] by subplanar injection of 0.05 ml of a 1% solution of carrageenin in a 0.85% solution of sodium chloride. The test compound was administered 60 minutes before the provocation of the edema.
(§5) For the calculation of the reductive effect on the edema, the size of the swelling was measured 3 hours after the provocation of the edema. All other details were the same as described above in the case of the kaolin edema.

For test [3], the system named is Carrageenin-induced edema of the hind paw of the rat. Kind of test: Carrageenin-induced edema of the hind paw of the rat (anti-exudative effect). Conditions: 60 minutes before provocation, swelling 3 hours after; for ED35: Rattus norvegicus, po, 3 h, read-out: Carrageenin edema ED35 per os; for Carrageenin edema ED35 per os: oral. The method, then:
as §1, §3
b. Carrageenin-induced edema of the hind paw of the rat
as §4, §5
On the technique in general: In the carrageenan paw model, swelling and tenderness develop within hours.

A further test deals with Adjuvant arthritis-rat. Kind of test: Adjuvant arthritis test on rats (M.butyricum). Conditions: po, 504 h, 21st day, once daily for 20 days by esophageal tube. The procedure: The adjuvant arthritis tests on rats were performed in analogy to the procedure described by Rosenthale and Nagra [Proc. Soc. exp. Biol. Med. 125, 149 (1967)].
Male FW 49-rats were given a subplantar injection of 0.1 ml of a 1% suspension of M.butyricum in viscous paraffin oil in a hind paw. The test compound was administered, beginning with the M.butyricum injection, once daily for 20 days by esophageal tube.
On the 21st day after inducing the arthritis, the volumes of the right paw (non-specific primary reaction at the place of injection) and the left paw (immunologically predicated specific secondary reaction) of the animals treated with the test compound were compared with those of the blind-treated control animals. From the swelling reduction obtained with the various doses, an ED50 was graphically determined.

The mark [4] stands for this setting: left paw volume, read-out: Adjuvant arthritis-rat ED50 per os, Secondary reaction.
Setting [5] is: right paw volume, read-out: Adjuvant arthritis-rat ED50 per os, Primary reaction.

Take `CC(=O)/C=C(\C)c1ccc([C@@H]2CCCC[C@H]2C)cc1` (relative stereo) [BB, (e,e)-4-[4-(2-methyl-cyclohexyl)-phenyl]-3-pentene-2-one]: the ED35 is 19 mg/kg in test [1] (Table I), 16 mg/kg in test [2] and 13 mg/kg in test [3] (Table I).
Consider `CC(O)/C=C/c1ccc(-c2ccccc2)c(F)c1` (stereo not shown) [A, (e)-4-(2-fluoro-4-biphenylyl)-3-butene-2-ol], for which the ED35 in test [1] (Table I) turned out to be 15 mg/kg; in test [2] it was 13.7 mg/kg; in test [3] (Table I), 12.4 mg/kg.
For `CC(O)CC(C)c1ccc(C2CCCCC2)c(Br)c1` (stereo not shown) [AA, 4-(3-bromo-4-cyclohexyl-phenyl)-2-pentanol], in that order: 28 mg/kg, 23.2 mg/kg and 18.5 mg/kg.
Take `CC(O)CCc1ccc(-c2ccccc2)c(F)c1` (stereo not shown) [B, 4-(2-fluoro-4-biphenylyl)-2-butanol]: the ED35 in test [1] (Table I) came to 16 mg/kg; in test [2], 14 mg/kg; in test [3] (Table I), 12 mg/kg.
For `CC(O)CCCCCCc1ccc(-c2ccccc2F)cc1` (stereo not shown) [C, 8-(2'-fluoro-4-biphenylyl)-2-octanol], in that order: 15 mg/kg, 16 mg/kg and 17 mg/kg.
For `CC(=O)CC(C)c1ccc(C2CCCCC2C)cc1` (stereo not shown) [CC, (e)-4-[4-(2-methyl-cyclohexyl)-phenyl]-2-pentanone], in that order: 29 mg/kg, 25 mg/kg and 21 mg/kg.
On the same counts, the results for `CC(=O)CCCCc1ccc(-c2ccccc2F)cc1` [D, 6-(2'-fluoro-4-biphenylyl)-2-hexanone] are 9 mg/kg, 9.75 mg/kg and 10.5 mg/kg.
`CC(=O)/C=C(\C)c1ccc(CC(C)C)c(Cl)c1` [DD, (e)-4-(3-chloro-4-isobutyl-phenyl)-3-pentene-2-one]: the ED35 in test [1] (Table I) came to 50 mg/kg; in test [2], 34.5 mg/kg; in test [3] (Table I), 19 mg/kg.
Usually ED50 stands for the dose that gives a 50% effect, or the effect in half of the subjects. As to `CC(=O)CC(C)c1ccc(-c2ccccc2)cc1` (stereo not shown) [E, 4-(4-biphenylyl)-2-pentanone], the ED35 is 21 mg/kg in test [1] (Table I); 21 mg/kg in test [1] (Table II); 18 mg/kg in test [2]; 15 mg/kg in test [3] (Table I); 15 mg/kg in test [3] (Table II). Further, the ED50 in the test with Adjuvant arthritis-rat (setting [4]) and in the test with Adjuvant arthritis-rat (setting [5]) was less than 4 mg/kg in each case.
Turning to `C/C(=C\C(C)O)c1ccc(CC(C)C)c(Cl)c1` (stereo not shown) [EE, (e)-4-(3-chloro-4-isobutyl-phenyl)-3-pentane-2-ol], the ED35 is 54 mg/kg in test [1] (Table I), 53 mg/kg in test [2] and 52 mg/kg in test [3] (Table I).
For `CC(=O)CCCCCCc1ccc(-c2ccccc2F)cc1` [F, 8-(2'-fluoro-4-biphenylyl)-2-octanone], the ED35 is 9.8 mg/kg in test [1] (Table I), 12.2 mg/kg in test [2] and 14.5 mg/kg in test [3] (Table I).
Consider `C/C(=C\C(C)O)c1ccc(C2CCCCC2)cc1` (stereo not shown) [FF, (e)-4-(4-cyclohexyl-phenyl)-3-pentene-2-ol], for which, in test [1] (Table I), the “Kaolin edema ED35 per os” value is 49 mgm/kg. In addition, the “Average value ED35” value in test [2] came to 42 mgm/kg. In test [3] (Table I), the “Carrageenin edema ED35 per os” value was found to be 35 mgm/kg.
`CC(=O)/C=C(\C)c1ccc(-c2ccccc2)cc1` [G, (e)-4-(4-biphenylyl)-3-pentene-2-one]: the figures for the ED35 in test [1] (Table I), in test [2] and in test [3] (Table I) were 23.5 mg/kg, 16.1 mg/kg and 8.6 mg/kg, respectively.
As to `CC(=O)/C=C(\C)c1ccc(-c2ccccc2F)cc1` [H, (e)-4-(2'-fluoro-4-biphenylyl)-3-pentene-2-one], the ED35 in test [1] (Table I) was 37 mg/kg; in test [1] (Table II), 37 mg/kg; in test [2], 22.9 mg/kg; in test [3] (Table I) it was 8.9 mg/kg; in test [3] (Table II), 11 mg/kg. The ED50 is less than 1 mg/kg with Adjuvant arthritis-rat (setting [4]) and less than 2 mg/kg with Adjuvant arthritis-rat (setting [5]).
`CC(O)CC(C)c1ccc(-c2ccccc2)c(F)c1` (stereo not shown) [I, 4-(2-fluoro-4-biphenylyl)-2-pentanol]: the figures for the ED35 in test [1] (Table I), in test [2] and in test [3] (Table I) were 17 mg/kg, 16.8 mg/kg and 16.5 mg/kg, respectively.
With `C/C(=C\C(C)O)c1ccc(-c2ccccc2F)cc1` (stereo not shown) [K, (e)-4-(2'-fluoro-4-biphenylyl)-3-pentene-2-ol], the ED35 in test [1] (Table I) is 17.5 mg/kg; in test [1] (Table II), 17.5 mg/kg; in test [2] it was 15.2 mg/kg; in test [3] (Table I) it was 12.8 mg/kg; in test [3] (Table II), 17 mg/kg. In addition, the ED50 with Adjuvant arthritis-rat (setting [4]) was less than 2 mg/kg; in the test with Adjuvant arthritis-rat (setting [5]), less than 1.5 mg/kg.
Take `CC(=O)/C=C(\C)c1ccc(-c2ccccc2)c(Cl)c1` [L, (e)-4-(2-chloro-4-biphenylyl)-3-pentene-2-one]: the ED35 was 15.5 mg/kg in test [1] (Table I), 10.6 mg/kg in test [2] and 5.6 mg/kg in test [3] (Table I).
With `C/C(=C\C(C)O)c1ccc(-c2ccccc2)c(Cl)c1` (stereo not shown) [M, (e)-4-(2-chloro-4-biphenylyl)-3-pentene-2-ol], the ED35 was found to be 26 mg/kg in test [1] (Table I), 24.5 mg/kg in test [2] and 23 mg/kg in test [3] (Table I).
For the molecule `CC(=O)CC(C)c1ccc(-c2ccccc2)c(Cl)c1` (stereo not shown) [N, 4-(2-chloro-4-biphenylyl)-2-pentanone], the ED35 turned out to be 31.5 mg/kg in test [1] (Table I), 24 mg/kg in test [2] and 16.5 mg/kg in test [3] (Table I).
Regarding `CC(O)CC(C)c1ccc(-c2ccccc2)c(Cl)c1` (stereo not shown) [O, 4(2-chloro-4-biphenylyl)-2-pentanol], in test [1] (Table I), the ED35 turned out to be 48 mg/kg.
As for `CC(=O)/C=C(\C)c1ccc(C2CCCCC2)c(Cl)c1` [P, (e)-4-(3-chloro-4-cyclohexyl-phenyl)-3-pentene-2-one], the ED35 was determined as 17 mg/kg in test [1] (Table I); 17 mg/kg in test [1] (Table II); 12.8 mg/kg in test [2]; 8.6 mg/kg in test [3] (Table I); 8.6 mg/kg in test [3] (Table II). The ED50 is less than 0.6 mg/kg in the test with Adjuvant arthritis-rat (setting [4]) and less than 0.7 mg/kg with Adjuvant arthritis-rat (setting [5]).
In the case of `CC(=O)CC(C)c1ccc(C2CCCCC2)c(Cl)c1` (stereo not shown) [Q, 4-(3-chloro-4-cyclohexyl-phenyl)-2-pentanone], the ED35 was 5 mg/kg in test [1] (Table I); 5 mg/kg in test [1] (Table II); 3.75 mg/kg in test [2]; 2.5 mg/kg in test [3] (Table I); 2.5 mg/kg in test [3] (Table II). For the same molecule, the results for the ED50 in the test on Adjuvant arthritis-rat (setting [4]) and with Adjuvant arthritis-rat (setting [5]) were less than 0.2 mg/kg and less than 0.4 mg/kg, respectively.
`CC(O)CC(C)c1ccc(C2CCCCC2)c(Cl)c1` (stereo not shown) [S, 4-(3-chloro-4-cyclohexyl-phenyl)-2-pentanol]: the ED35 is 7.6 mg/kg in test [1] (Table I), 7.3 mg/kg in test [2] and 7 mg/kg in test [3] (Table I).
On the same counts, the results for `CC(=O)/C=C(\C)c1ccc(C2CCCCC2)cc1` [T, (e)-4-(4-cyclohexyl-phenyl)-3-pentene-2one] are 12.5 mg/kg, 12.2 mg/kg and 12 mg/kg.
Take `CC(=O)CC(C)c1ccc(C2CCCCC2)cc1` (stereo not shown) [U, 4-(4-cyclohexyl-phenyl)-2-pentanone]: the ED35 in test [1] (Table I) was found to be 15 mg/kg.
Turning to `C/C(=C\C(C)O)c1ccc(C2CCCCC2)cc1` (stereo not shown) [V, (e)-4-(4-cyclohexyl-phenyl)-3-pentene-2-ol], in test [1] (Table I), the “Kaolin edema ED35 per os” value is recorded as 13.3 mgm/kg. The “Average value ED35” value in test [2] was found to be 10.45 mgm/kg. Besides, the “Carrageenin edema ED35 per os” value in test [3] (Table I) is 7.6 mgm/kg.
`CC(O)CC(C)c1ccc(C2CCCCC2)cc1` (stereo not shown) [W, 4-(4-cyclohexyl-phenyl)-2-pentanol]: the ED35 in test [1] (Table I) was 26 mg/kg.
In the case of `CC(=O)/C=C(\C)c1ccc(C2CCCCC2)c(Br)c1` [X, (e)-4-(3-bromo-4-cyclohexyl-phenyl)-3-pentene-2-one], the ED35 in test [1] (Table I), in test [2] and in test [3] (Table I) was 22 mg/kg throughout.
In the case of `CC(=O)CC(C)c1ccc(C2CCCCC2)c(Br)c1` (stereo not shown) [Y, 4-(3-bromo-4-cyclohexyl-phenyl)-2-pentanone], in test [1] (Table I), the ED35 turned out to be 13 mg/kg.
On the same count and under the same terms, the value for `C/C(=C\C(C)O)c1ccc(C2CCCCC2)c(Br)c1` (stereo not shown) [Z, (e)-4-(3-bromo-4-cyclohexyl-phenyl)-3-pentene-2-ol] was 16 mg/kg.
